Test results published in patent US6737383B1, “Herbicidal oxadiazolidines” (priority 1999, dated 2004).

How the values were obtained:
Settings in all cases: Preemergence
morningglory = assay: Test B pre/postemergence morningglory; type: in vivo, Ipomoea hederacea
In short: (§1)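 Herbicidal effect was estimated by eye on a ten-point control scale after plants spent twelve to sixteen days in a greenhouse following soil or foliar treatment. Foliar sprays targeted plants at one to four leaves; all doses were formulated in a non-phytotoxic solvent with surfactant.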

giant foxtail = assay: Test B pre/postemergence giant foxtail; type: in vivo, Setaria faberii
In short: as §1

wheat = assay: Test B pre/postemergence wheat; type: in vivo, Triticum aestivum
In short: as §1

soybean = assay: Test B pre/postemergence soybean; type: in vivo, Glycine max
In short: as §1

bedstraw = assay: Test B pre/postemergence bedstraw; type: in vivo, Galium aparine
In short: as §1

cocklebur = assay: Test B pre/postemergence cocklebur; type: in vivo, Xanthium strumarium
In short: as §1

purple nutsedge = assay: Test B pre/postemergence purple nutsedge; type: in vivo, Cyperus rotundus
In short: as §1

sugar beet = assay: Test B pre/postemergence sugar beet; type: in vivo, Beta vulgaris
In short: as §1

crabgrass = assay: Test B pre/postemergence crabgrass; type: in vivo, Digitaria sanguinalis
In short: as §1

blackgrass = assay: Test B pre/postemergence blackgrass; type: in vivo, Alopecurus myosuroides
In short: as §1

velvetleaf = assay: Test B pre/postemergence velvetleaf; type: in vivo, Abutilon theophrasti
In short: as §1

wild oat = assay: Test B pre/postemergence wild oat; type: in vivo, Avena fatua
In short: as §1

rape = assay: Test B pre/postemergence rape; type: in vivo, Brassica napus
In short: as §1

pigweed = assay: Test B pre/postemergence pigweed; type: in vivo, Amaranthus retroflexus
In short: as §1

corn = assay: Test B pre/postemergence corn; type: in vivo, Zea mays
In short: as §1

surinam grass = assay: Test B pre/postemergence surinam grass; type: in vivo, Brachiaria decumbens
In short: as §1

[1] = Rate 62 g/ha, scale of 0 to 10 where 0 is no effect and 10 is complete control
[2] = Rate 125 g/ha, scale of 0 to 10 where 0 is no effect and 10 is complete control
[3] = Rate 250 g/ha, scale 0 (no effect) to 10 (complete control)
[4] = Rate 500 g/ha, scale 0 to 10 (0 no effect, 10 complete control)

Which results are given for `CC(C)N(C(=O)n1oc(=O)n(C(C)C(=S)N(C)C)c1=O)c1ccc(Cl)cc1` (stereo not drawn) [Compound 733]?
Morningglory plant response rating (morningglory; [1]): 1; Plant response rating, Morningglory (morningglory; [2]): 1; Morningglory plant response rating (morningglory; [3]): 2; Morningglory plant response rating (morningglory; [4]): 2; Giant foxtail plant response rating (giant foxtail; [1]): 3; Plant response rating, Giant foxtail (giant foxtail; [2]): 6; Giant foxtail plant response rating (giant foxtail; [3]): 9; Giant foxtail plant response rating (giant foxtail; [4]): 9; Wheat plant response rating (wheat; [1]): 0; Plant response rating, Wheat (wheat; [2]): 0; Wheat plant response rating (wheat; [3]): 0; Wheat plant response rating (wheat; [4]): 0; Soybean plant response rating (soybean; [1]): 0; Plant response rating, Soybean (soybean; [2]): 0; Soybean plant response rating (soybean; [3]): 0; Soybean plant response rating (soybean; [4]): 0; Bedstraw plant response rating (bedstraw; [1]): 0; Plant response rating, Bedstraw (bedstraw; [2]): 0; Bedstraw plant response rating (bedstraw; [3]): 0; Bedstraw plant response rating (bedstraw; [4]): 0; Cocklebur plant response rating (cocklebur; [1]): 0; Plant response rating, Cocklebur (cocklebur; [2]): 0; Cocklebur plant response rating (cocklebur; [3]): 0; Cocklebur plant response rating (cocklebur; [4]): 0; Nutsedge plant response rating (purple nutsedge; [1]): 0; Plant response rating, Nutsedge (purple nutsedge; [2]): 0; Nutsedge plant response rating (purple nutsedge; [3]): 0; Sugarbeets plant response rating (sugar beet; [1]): 0; Plant response rating, Sugarbeets (sugar beet; [2]): 0; Sugarbeets plant response rating (sugar beet; [3]): 0; Sugarbeets plant response rating (sugar beet; [4]): 0; Crabgrass plant response rating (crabgrass; [1]): 2; Plant response rating, Crabgrass (crabgrass; [2]): 5; Crabgrass plant response rating (crabgrass; [3]): 9; Crabgrass plant response rating (crabgrass; [4]): 9; Blackgrass plant response rating (blackgrass; [1]): 4; Plant response rating, Blackgrass (blackgrass; [2]): 7; Blackgrass plant response rating (blackgrass; [3]): 8; Blackgrass plant response rating (blackgrass; [4]): 10; Velvetleaf plant response rating (velvetleaf; [1]): 0; Plant response rating, Velvetleaf (velvetleaf; [2]): 0; Velvetleaf plant response rating (velvetleaf; [3]): 0; Velvetleaf plant response rating (velvetleaf; [4]): 1; Wild oats plant response rating (wild oat; [1]): 2; Plant response rating, Wild oats (wild oat; [2]): 2; Wild oats plant response rating (wild oat; [3]): 2; Wild oats plant response rating (wild oat; [4]): 8; Rape plant response rating (rape; [1]): 0; Plant response rating, Rape (rape; [2]): 0; Rape plant response rating (rape; [3]): 3; Rape plant response rating (rape; [4]): 5; Redroot pigweed plant response rating (pigweed; [1]): 0; Plant response rating, Redroot pigweed (pigweed; [2]): 0; Redroot pigweed plant response rating (pigweed; [3]): 5; Redroot pigweed plant response rating (pigweed; [4]): 7; Corn plant response rating (corn; [1]): 0; Plant response rating, Corn (corn; [2]): 0; Corn plant response rating (corn; [3]): 0; Corn plant response rating (corn; [4]): 0; B. signalgrass plant response rating (surinam grass; [1]): 6; Plant response rating, B. signalgrass (surinam grass; [2]): 6; B. signalgrass plant response rating (surinam grass; [3]): 8; B. signalgrass plant response rating (surinam grass; [4]): 10
